We go through one compound from patent US6063777A, “Iminochlorinaspartic acid derivatives” (Wyeth Lederle Japan, Ltd., priority 1996, dated 2000).

Data set [1] is described as follows: Laser irradiation to extirpated organ: distribution (cancer/organ ratio) by surface fluorescence, N2-pulsed laser, mice bearing Colon 26. The class given is in vivo, CDF1 mice. Particulars: mouse, tumor/plasma, sodium salt, 10 mg/kg intravenous. As to the method: (§1) CDF1 mice (5 per group) were implanted with tumor tissues of colon cancer Colon 26. Two weeks after the implantation, the mice were given an intravenous injection of sodium salt of each of compounds (I) and (II) (10 mg/kg for each mouse) which had been diluted with a distilled water for injection. At 3 hrs, 6 hrs and 12 hrs after the injection, the blood samples were collected and the organs bearing the tumor tissue were extirpated, irradiated with N2 -pulsed laser (N2, wavelength: 337 nm, 2 ns), and the excited fluorescent spectrum was measured. The wavelengths in the range of 600 to 900 nm were examined based on the peak wavelength of NADH at 470 nm (determination of the distribution of the test compound in the organ by the surface fluorescence method using N2 -pulsed laser spectrophotometry). That is, cancer/organ (or plasma) ratio was determined by calculating the peak wavelength in the range of 600 to 900 nm when the peak wavelength at 470 nm was considered as the basic value, 1.

The next data set relates to colon cancer Colon 26. Described as above. The class given is in vivo, CDF1 mice. The note with it: sodium salt, 10 mg/kg intravenous. The method, then: as §1
The next data set concerns HeLa cells. The experiment in a line: HeLa cell survival after diode laser (670 nm) irradiation, MTS-PMS reagent. The class given is cell-based. The note with it: Homo sapiens, HeLa, light or radiation study, sodium salt, 6 hrs, 670 nm, 25 J/cm^2, read-out: Cell Survival Rate. As to the method: HeLa cells were seeded in wells of a 96-well plate each containing 100 μl of a culture medium at 5×10^3 /well, and incubated at 37° C. overnight. In each well, the culture medium was removed, and 100 μl of a solution containing sodium salt of either of compound (I) or compound (II) in concentrations of 0, 6.25, 12.5, 25, 50 and 100 μM/ml was added (3 wells for each group of the concentrations) and incubated at 37° C. at for 6 hrs. Each well was washed with PBS(-) once, and then 100 μl of a fresh medium was added. The wells were irradiated using a diode laser (670 nm) under the conditions of 0.44W of laser intensity, 0.785 cm^2 of irradiation area (diameter: 1 cm) and 25 J/cm^2 of laser energy. After the irradiation, each well was incubated at 37° C. overnight and washed with PBS(-) once, then 100 μl of a fresh medium was added. To each well was added 20 μl of MTS-PMS reagent, and the well was further incubated at 37° C. for 2-4 hrs. The absorbance of each well at 492 nm was measured using a microplate reader. The cell survival rate at each of the above mentioned concentrations of the test compound was calculated considering the value for the well of 0 μM/ml of the test compound as 100%.

One may read the Kp as the ratio of the level in a tissue or fluid to that in plasma or blood. Take `C=Cc1c(C)c2cc3nc(cc4[nH]c(cc5nc(cc1[nH]2)C(C)(O)C5=CC=NO)c(C)c4CCC(=O)NC(CC(=O)O)C(=O)O)C(CCC(=O)NC(CC(=O)O)C(=O)O)=C3C` (centres unmarked) [Compound (II), reference compound]: the Kp at 3 h in data set [1] (3 hr) was 0.3. The Kp at 6 h in data set [1] (6 hr) stood at 1.12. Further, the Kp at 12 h in data set [1] (12 hr) worked out at 0.66. Further, in the data set on colon cancer Colon 26 (3 hr), the Cancer/Brain ratio is reported as 10.10, the Cancer/Kidney ratio was 0.67, the Cancer/Liver ratio is on record as 0.62 and the Cancer/Lung ratio came out at 2.35. Besides, the Cancer/Muscle ratio in the data set on colon cancer Colon 26 (3 hr) was found to be 1.23. Besides, in the data set with colon cancer Colon 26 (6 hr), the Cancer/Brain ratio stood at 16.0, the Cancer/Kidney ratio came to 0.59, the Cancer/Liver ratio was 1.01 and the Cancer/Lung ratio was 4.59. For the same compound, the Cancer/Muscle ratio in the data set on colon cancer Colon 26 (6 hr) was 1.26. Besides, in the data set on colon cancer Colon 26 (12 hr), the Cancer/Brain ratio came to 15.0, the Cancer/Kidney ratio was 0.95, the Cancer/Liver ratio stood at 1.11 and the Cancer/Lung ratio is 2.68. Moreover, the Cancer/Muscle ratio with colon cancer Colon 26 (12 hr) amounted to 2.95. In addition, the viability at 6.25 µM in the data set on HeLa cells (6.25 μM) was determined as 81%. In addition, in the data set on HeLa cells (12.5 μM), the viability at 12.5 µM worked out at 54%. For the same compound, in the data set on HeLa cells (25 μM), the viability at 25 µM came to 48%. The viability at 50 µM with HeLa cells (50 μM) amounted to 35%. Also, the viability at 100 µM in the data set on HeLa cells (100 μM) is 19%.
